Results as given in US6486199B1, “Spiro and dispiro 1,2,4-trioxolane antimalarials” (Medicines for Malaria Venture MMV International Centre …, priority 2001, dated 2002).
≈ marks a conversion by molar mass, not a printed value. Like-named read-outs stand apart in the source and are kept apart here. Marks after values point to notes of the source that are not given here.

Assays:
[1] = tested on: chloroquine-resistant K1 strain of P. falciparum; assay: in vitro screen against chloroquine-resistant K1 strain of P. falciparum; type: cell-based; settings: Plasmodium falciparum
[2] = tested on: chloroquine-sensitive NF54 strain of P. falciparum; assay: in vitro screen against chloroquine-sensitive NF54 strain of P. falciparum; type: cell-based; settings: Plasmodium falciparum
[3] = tested on: ANKA strain of P. Berghei; assay: single dose STI in vivo screen in infected Moro SPF mice; settings: for antimalarial activity, overall assessment: overall judgement of in vitro and in vivo data of Table 2; for inhibition in vivo at 10 mg/kg: Plasmodium berghei, 72 h
Protocol: In the single dose STI in vivo screen, Moro SPF mice infected with the ANKA strain of P. Berghei (groups of three mice) were treated on day one post-infection with trioxolanes dissolved or suspended in 3% ethanol and 7% Tween 80. […] Antimalarial activity was measured by percent redution in parasitemia on day three post-infection and survival times compared to an untreated control group. Survival to day 30 post-infection is considered to be a cure.

P. berghei [4] = assay: 1-day Peters test against P. berghei in vivo; settings: for ED50 / ED90: Plasmodium berghei, 24 h; for ED90: read-out: P. berghei (1 day) ED90 po
[5] = differential scanning calorimetry (DSC), thermal stability; type: physicochemical; settings: thermal decomposition
P. berghei [6] = assay: 4-day Peters test against P. berghei in vivo; settings: for ED50: Plasmodium berghei, 96 h
[7] = tested on: 21-day-old schistosomules of Schistosoma mansoni; assay: effect on 21-day-old schistosomules in mice; type: in vivo; settings: single 200 mg/kg per os
Protocol: […] Each group was treated per os with OZ compounds at a single dose of 200 mg/kg. Untreated mice served as the control. All groups were killed 4 weeks after treatment and the liver and intestine were removed and separated. The liver and intestine were compressed and alive male and female worms could be seen and counted. The effect of the compounds was evaluated by mean total and female worm burden.

[8] = in vitro, K1 strain, read-out: IC50 (ng/ml) K1
[9] = in vitro, NF54 strain, read-out: IC50 (ng/ml) NF54
[10] = percent reduction in parasitemia day 3 post-infection, single 100 mg/kg po
[11] = percent reduction in parasitemia day 3 post-infection, single 100 mg/kg sc
[12] = single 100 mg/kg po, survival to day 30 = cure
[13] = single 100 mg/kg sc, survival to day 30 = cure
[14] = NF54, read-out: IC50 (ng/ml) NF54
[15] = in vitro, K1 and NF54 strains not distinguished, read-out: IC50

| Compound | IC50 [1, 8] [ng/mL] | IC50 [2, 9] [ng/mL] | Activity (%) po [3, 10] | Activity (%) sc [3, 11] | Survival (days) po [3, 12] | Survival (days) sc [3, 13] | IC50 ([1]; K1, read-out: IC50 (ng/ml) K1) [ng/mL] | IC50 [2, 14] [ng/mL] | antimalarial activity, overall assessment [3] | Tm dec. (° C.) [5] [°C] | other results |
| --- | --- | --- | --- | --- | --- | --- | --- | --- | --- | --- | --- |
| C[C@@H]1CC[C@H]2[C@@H](C)C(=O)O[C@@H]3O[C@@]4(C)CC[C@@H]1[C@]32OO4 [Artemisinin, artemisinin, reference compound] | 1.2 (≈ 4.25 nM) | 1.9 (≈ 6.73 nM) | 98% | 100% | 7.3 days | 14 days | – | – | – | – | Activity (%) po ([3]; percent reduction in parasitemia day 3 post-infection, single 10 mg/kg po): 65%; Activity (%) sc ([3]; percent reduction in parasitemia day 3 post-infection, single 10 mg/kg sc): 87%; Survival (days) po ([3]; single 10 mg/kg po): 6.5 days; Survival (days) sc ([3]; single 10 mg/kg sc): 7.0 days; ED50 (P. berghei [4]; 1 day, po, read-out: P. berghei (1 day) ED50 po): 9.1 mg/kg; ED90 (P. berghei [4]; 1 day, po): 14 mg/kg |
| C1CCC2(CC1)OOC1(CCCCC1)O2 [OZ01, 7,14,15-Trioxadispiro[5.1.5.2]pentadecane] | – | – | 0/0% | 0/0% | 5.3/5.3 days | 5.3/5.3 days | > 100 | > 100 | less active | – | – |
| O=C1CCC2(CC1)OOC1(CCCCC1)O2 [OZ02, 3-Oxo-7,14,15-trioxadispiro[5.1.5.2]pentadecane] | > 100 | 94 (≈ 415 nM) | 0/0% | 0/0% | 5.0/5.0 days | 5.0/5.0 days | – | – | less active | 193.3 | – |
| FC1CCCCC12OOC1(CCCCC1)O2 (centres unmarked) [OZ06, 1-Fluoro-7,14,15-trioxadispiro[5.1.5.2]pentadecane] | – | – | – | – | 1.0/1.0 days | 1.0/1.0 days | 18 (≈ 78.2 nM) | 22 (≈ 95.5 nM) | less active | – | – |
| C1CCC2(CC1)OOC1(CCC3(CC1)OOC1(CCCCC1)O3)O2 (centres unmarked) [OZ09, 7,12,19,20,23,24-Hexaoxatetraspiro[5.1.2.1.5.2.2.2]tetracosane] | – | – | – | – | – | – | 32 (≈ 94 nM) | 39 (≈ 115 nM) | less active | 196.5 | – |
| C1COC2(CCC3(CC2)OOC2(O3)C3CC4CC(C3)CC2C4)O1 (centres unmarked) [OZ10, Adamantane-2-spiro-3′-1′,2′,4′,9′,12′-pentaoxadispiro[4.2.4.2]tetradecane] | – | – | – | – | – | – | 0.4 (≈ 1.24 nM) | 0.67 (≈ 2.08 nM) | – | 159.4 | inhibition in vivo at 10 mg/kg ([3]; po, read-out: Activity (%) po): 99.6%; inhibition in vivo at 10 mg/kg ([3]; sc, read-out: Activity (%) sc): 100%; P. berghei (1 day) ED90 sc (P. berghei [4]; 1 day, sc): 2.2 mg/kg; ED50 (P. berghei [4]; po, read-out: P. berghei (1 day) ED50 po): 2.3 mg/kg; ED90 (P. berghei [4]; po): 6.3 mg/kg; ED50 (P. berghei [4]; sc, read-out: P. berghei (1 day) ED50 sc): 0.06 mg/kg; P. berghei (4 day) ED90 po (P. berghei [6]; 4 day, po): 3.0 mg/kg; P. berghei (4 day) ED90 sc (P. berghei [6]; 4 day, sc): 0.9 mg/kg; ED50 (P. berghei [6]; po, read-out: P. berghei (4 day) ED50 po): 1.3 mg/kg; ED50 (P. berghei [6]; sc, read-out: P. berghei (4 day) ED50 sc): 0.5 mg/kg |
| C1CC2(CCO1)OOC1(O2)C2CC3CC(C2)CC1C3 (centres unmarked) [OZ22, Adamantane-2-spiro-3′-1′,2′,4′,8′-tetraoxaspiro[4.5]decane] | – | – | – | – | – | – | 0.32 (≈ 1.2 nM) | 0.56 (≈ 2.1 nM) | – | – | inhibition in vivo at 10 mg/kg ([3]; po, read-out: Activity (%) po): 35%; inhibition in vivo at 10 mg/kg ([3]; sc, read-out: Activity (%) sc): 99.6%; FWR (%) ([7]; female worm reduction rate): 76%; Mean female worm burden ([7]; mean ± standard deviation): 3.0 ± 1.9^b; TWR (%) ([7]; total worm reduction rate): 75% |
| O=C(NN=C1CCC2(CC1)OOC1(O2)C2CC3CC(C2)CC1C3)Nc1ccccc1 (centres unmarked) [OZ30, Adamantane-2-spiro-3′-1′,2′,4′-trioxaspiro[4.5]decan-8′-one 4-phenylsemicarbazone] | – | – | – | – | – | – | 0.65 (≈ 1.58 nM) | 1.3 (≈ 3.16 nM) | – | 174.8 | IC50 [1, 15]: < 5 ng/mL; P. berghei (4 day) ED90 po (P. berghei [6]; 4 day, po): <10/>10 mg/kg; ED50 (P. berghei [6]; 4 day, po, read-out: P. berghei (4 day) ED50 po): < 10 mg/kg |
| Cc1ccc(S(=O)(=O)NN=C2CCC3(CC2)OOC2(O3)C3CC4CC(C3)CC2C4)cc1 (centres unmarked) [OZ39, Adamantane-2-spiro-3′-1′,2′,4′-trioxaspiro[4.5]decan-8′-one tosylhydrazone] | 1.4 (≈ 3.14 nM) | 1.8 (≈ 4.03 nM) | – | – | – | – | – | – | – | 146.9 | IC50 [1, 15]: < 2 ng/mL; inhibition in vivo at 10 mg/kg ([3]; percent reduction in parasitemia day 3 post-infection, single 10 mg/kg po, read-out: Activity (%) po): 61%; inhibition in vivo at 10 mg/kg ([3]; percent reduction in parasitemia day 3 post-infection, single 10 mg/kg sc, read-out: Activity (%) sc): 99.3% |
| O=S1(=O)CCC2(CC1)OOC1(O2)C2CC3CC(C2)CC1C3 (centres unmarked) [OZ50, Adamantane-2-spiro-3′-1′,2′,4′-trioxa-8′-thiaspiro[4.5]decane 8′,8′-dioxide] | 1.1 (≈ 3.5 nM) | 1.2 (≈ 3.82 nM) | – | – | – | – | – | – | – | 147.1 | – |
